{
  "source": "paper PMC7607171",
  "about": "“Optimized low‐dose combinatorial drug treatment boosts selectivity and efficacy of colorectal carcinoma treatment” (Molecular Oncology, 2020)",
  "key": {"[1]": {"assay": "Clinical plasma pharmacokinetics in patients, plasma concentration limit calculation", "assay_type": "in vivo", "details": "average plasma concentration calculated from AUC0-24h in patients", "method_in_brief": "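Plasma concentration limit is the average concentration derived from patient AUC0–24h, using the recommended clinical dose for FDA-approved drugs or the maximum tolerated dose from early trials otherwise. Values reflect AUC data available at December 2017.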"}, "[2]": {"assay": "Serum and intratumor drug concentration at experimental endpoint, DLD1 model", "assay_type": "in vivo, mice", "details": "for concentration at 1 h / Kp at 1 h: Swiss Nu/nu, mouse, oral; for concentration at 1 h: 1h post-treatment at endpoint (day 15); for Kp at 1 h: tumor vs serum, read-out: ratio tumor vs serum; for Kp at 1 h / ratio ODC vs single drug: DLD1 model", "method": "(§1) At the experimental endpoint, plasma and tumors were collected 1h post‐treatment and part of the tumor tissue was used to determine the intratumor drug concentrations. Plasma and tumor samples were analyzed using the same LC‐MS/MS method used for drug determination in DBS. Before analysis, tumor tissues were homogenized in a 1 mL mixture of water/acetonitrile (30/70). Hundred uL of homogenates were transferred into new tubes and 50 µL of acetonitrile, as well as 50 µL of a mix of internal standards in MeOH were added. Tubes were vortexed and centrifuged for 10 min at 9,000 rpm. The supernatant (100 µL) was evaporated under nitrogen and reconstituted in 100 µL of acetonitrile with 0.1% formic acid/water with 0.1% formic acid (30/70). 10 µL was then injected into the LC‐MS/MS system. Plasma samples were spotted onto the same paper used for whole blood analysis and were extracted and analyzed using the same methods as used for DBS."}, "[3]": {"assay": "Serum and intratumor drug concentration at experimental endpoint, SW620 model", "assay_type": "in vivo, mice", "details": "for concentration at 1 h / Kp at 1 h: Swiss Nu/nu, mouse, oral; for concentration at 1 h: 1h post-treatment at endpoint (day 19); for Kp at 1 h: tumor vs serum, read-out: ratio tumor vs serum; for Kp at 1 h / ratio ODC vs single drug: SW620 model", "method": "as §1"}, "[4]": {"assay": "Pharmacokinetics, dried blood spot LC-MS/MS, mice with DLD1 tumors", "assay_type": "in vivo", "details": "for Tmax / AUC(0-t) / Cmax: Swiss Nu/nu, mouse, whole blood (dried blood spot), po, regorafenib 15, erlotinib 12.5, selumetinib 5, vemurafenib 75 mg/kg; for AUC(0-t) / Cmax: whole blood, mean ± SD; for AUC(0-t): oral, read-out: AUC0-24h", "method": "(§2) The pharmacokinetic (PK) study was performed using the dried blood spot method. Mice were treated with CTRL, ODCs, and corresponding monotherapies as described above. To determine the disposition in blood in the first 24h, blood samples (5 µL/mouse) were collected from the tail vein (n = 4 mice) at 2h, 4h, 8h, and 24h time points and transferred onto paper (a filter paper 903 protein saver card from Whatman (MA, USA)). A disk with the entire spot was punched from the paper card and transferred to the HPLC vial tube. Hundred µL of MeOH containing a mix of internal standards was added, and the tube was vortex‐mixed for about 1 min before injecting 10 µL into the LC‐MS/MS system. The LC‐MS/MS system consisted of an API 4,000 triple quadrupole mass spectrometer (AB sciex, Concord, ON, Canada) controlled by analyst 1.6.1 software. The mass spectrometer was operated in the multiple reaction monitoring (MRM) mode with positive electrospray ionization. The instrument was coupled with an Agilent series 1100 (Waldbronn, Germany) LC system. Chromatography was performed on a Phenomenex Kinetex C18 analytical column (50 mm x 2.1 mm, 2.6 um; Torrance, CA, USA). The flow rate was 0.5 mL/min using gradient elution conditions. The method was fully validated before application to this pharmacokinetic study."}, "[5]": {"assay": "Pharmacokinetics, dried blood spot LC-MS/MS, mice with SW620 tumors", "assay_type": "in vivo", "details": "for Tmax / AUC(0-t) / Cmax: Swiss Nu/nu, mouse, whole blood (dried blood spot), po, regorafenib 30, vemurafenib 75, GDC-0994 10 mg/kg; for AUC(0-t) / Cmax: whole blood, mean ± SD; for AUC(0-t): oral, read-out: AUC0-24h", "method": "as §2"}, "DLD1 tumors": {"test_system": "DLD1 tumors", "assay": "Subcutaneous xenograft tumor growth", "assay_type": "in vivo, Swiss nu/nu mice", "method": "All procedures including animal use were performed in accordance with the Institutional Ethical Committee of Animal Care in Geneva and the Swiss Cantonal Veterinary Office (Authorization number GE‐136‐19). Briefly, female and male Swiss nu/nu mice aged 6–8 weeks were obtained from Charles River (Écully, France). For subcutaneous xenografts mice were inoculated in the left flank with 5x10^6 DLD1 or SW620 cells suspended in 100 µL of cell culture medium, supplemented with 1% FBS.\nDrugs were administered through oral gavage based on average body weight of the males (100 µL/mouse) and females (80 µL/mouse) at various concentrations, see Tables S10 and S11.\nSolution A: step (1) 30% PEG 400 + 5% propylene glycol + 0.5% Tween 80 and (2) 64.5% sterile H2O. Solution B: step (1) 10% DMSO, (2) 30% PEG 300 + 5% Tween 80 and (3) 55% sterile H2O. […] FOLFOX was administered as 6 mg/kg oxaliplatin two hours before administration of 90 mg/kg leucovorin and 50 mg/kg (DLD1) or 25 mg/kg (SW620) 5‐fluorouracil at day 1 and a repeat of 5‐fluorouracil dosing on day 2.\nThe Bliss independence model can be used to evaluate the drug interaction potential of a drug mixture. […] The model is based on the probability theory and requires the drug activity of each drug at the selected dose to predict the inhibition rate (IR) at additive doses."}, "[6]": {"details": "given as part of DLD1-specific ODC"}, "[7]": {"details": "given as part of SW620-specific ODC"}, "[8]": {"details": "vemurafenib 25 mg/kg, Exp 2, Day 14"}, "[9]": {"details": "vemurafenib 75 mg/kg b.i.d., Exp 3, Day 13"}, "[10]": {"details": "vemurafenib 75 mg/kg, Exp 2, Day 14"}, "[11]": {"details": "vemurafenib 75 mg/kg, Exp 5, Day 16"}, "[12]": {"details": "vemurafenib 75 mg/kg, Exp 7, Day 15"}, "[13]": {"details": "vemurafenib 150 mg/kg b.i.d., Exp 4, Day 16"}},
  "data": [
    {"smiles": "CCCS(=O)(=O)Nc1ccc(F)c(C(=O)c2c[nH]c3ncc(-c4ccc(Cl)cc4)cc23)c1F", "note": "[vemurafenib]", "values": [
      {"measurement": "PCL (plasma concentration limit)", "setting": "[1]", "result": 11.1, "unit": "µM"},
      {"measurement": "concentration at 1 h", "setting": "[2]; serum, as part of ODC, regorafenib 15, erlotinib 12.5, selumetinib 5, vemurafenib 75 mg/kg, read-out: concentration serum", "result": "910 ± 380", "unit": "ng/mL"},
      {"measurement": "concentration at 1 h", "setting": "[2]; serum, single drug, regorafenib 15, erlotinib 12.5, selumetinib 5, vemurafenib 75 mg/kg, read-out: concentration serum", "result": 620, "unit": "ng/mL"},
      {"measurement": "concentration at 1 h", "setting": "[2]; tumor (DLD1), as part of ODC, DLD1 tumor, doses as E156, read-out: concentration tumor", "result": "1650 ± 1000", "unit": "ng/g"},
      {"measurement": "concentration at 1 h", "setting": "[2]; tumor (DLD1), single drug, DLD1 tumor, doses as E156, read-out: concentration tumor", "result": 790, "unit": "ng/g"},
      {"measurement": "Kp at 1 h", "setting": "[2]; as part of ODC", "result": 1.81},
      {"measurement": "Kp at 1 h", "setting": "[2]; single drug", "result": 1.28},
      {"measurement": "ratio ODC vs single drug", "setting": "[2]; serum", "result": 1.48},
      {"measurement": "ratio ODC vs single drug", "setting": "[2]; tumor", "result": 2.09},
      {"measurement": "concentration at 1 h", "setting": "[3]; serum, as part of ODC, regorafenib 30, selumetinib 0.2, vemurafenib 75, GDC-0994 10 mg/kg, read-out: concentration serum", "result": "1770 ± 770", "unit": "ng/mL"},
      {"measurement": "concentration at 1 h", "setting": "[3]; serum, single drug, regorafenib 30, selumetinib 0.2, vemurafenib 75, GDC-0994 10 mg/kg, read-out: concentration serum", "result": "1960 ± 1050", "unit": "ng/mL"},
      {"measurement": "concentration at 1 h", "setting": "[3]; tumor (SW620), as part of ODC, SW620 tumor, doses as E164, read-out: concentration tumor", "result": "890 ± 530", "unit": "ng/g"},
      {"measurement": "Kp at 1 h", "setting": "[3]; as part of ODC", "result": 0.5},
      {"measurement": "Kp at 1 h", "setting": "[3]; single drug", "result": 0.48},
      {"measurement": "ratio ODC vs single drug", "setting": "[3]; serum", "result": 0.90},
      {"measurement": "ratio ODC vs single drug", "setting": "[3]; tumor", "result": 0.95},
      {"measurement": "Tmax", "setting": "[4]; [6]", "result": 4, "unit": "h"},
      {"measurement": "AUC(0-t)", "setting": "[4]; [6]", "result": "14400 ± 2740", "unit": "ng·h/mL"},
      {"measurement": "Cmax", "setting": "[4]; [6]", "result": "1050 ± 360", "unit": "ng/mL"},
      {"measurement": "Tmax", "setting": "[4]; mono", "result": 2, "unit": "h"},
      {"measurement": "AUC(0-t)", "setting": "[4]; mono", "result": "2180 ± 220", "unit": "ng·h/mL"},
      {"measurement": "Cmax", "setting": "[4]; mono", "result": "270 ± 80", "unit": "ng/mL"},
      {"measurement": "increase of AUC as part of the ODC vs single-drug treatment", "setting": "[4]; mice with DLD1 tumors, AUC0-24h", "result": 6.6, "unit": "x"},
      {"measurement": "Tmax", "setting": "[5]; [7]", "result": 4, "unit": "h"},
      {"measurement": "AUC(0-t)", "setting": "[5]; [7]", "result": "48200 ± 5720", "unit": "ng·h/mL"},
      {"measurement": "Cmax", "setting": "[5]; [7]", "result": "4710 ± 650", "unit": "ng/mL"},
      {"measurement": "Tmax", "setting": "[5]; mono", "result": 2, "unit": "h"},
      {"measurement": "AUC(0-t)", "setting": "[5]; mono", "result": "19400 ± 3250", "unit": "ng·h/mL"},
      {"measurement": "Cmax", "setting": "[5]; mono", "result": "2560 ± 640", "unit": "ng/mL"},
      {"measurement": "increase of AUC as part of the ODC vs single-drug treatment", "setting": "[5]; mice bearing SW620 tumors, AUC0-24h", "result": 2.5, "unit": "x"},
      {"measurement": "% CTRL (tumor volume)", "setting": "DLD1 tumors; [8]", "result": "80 33 19 % CTRL"},
      {"measurement": "Volume", "setting": "DLD1 tumors; [8]", "result": "562 231 133 mm^3"},
      {"measurement": "% CTRL (tumor volume)", "setting": "DLD1 tumors; [9]", "result": "113 88 39 % CTRL"},
      {"measurement": "Volume", "setting": "DLD1 tumors; [9]", "result": "388 304 136 mm^3"},
      {"measurement": "% CTRL (tumor volume)", "setting": "DLD1 tumors; [10]", "result": "87 46 23 % CTRL"},
      {"measurement": "Volume", "setting": "DLD1 tumors; [10]", "result": "612 319 160 mm^3"},
      {"measurement": "% CTRL (tumor volume)", "setting": "DLD1 tumors; [11]", "result": "94 31 14 % CTRL"},
      {"measurement": "Volume", "setting": "DLD1 tumors; [11]", "result": "600 200 89 mm^3"},
      {"measurement": "% CTRL (tumor volume)", "setting": "DLD1 tumors; [12]", "result": "123 69 24 % CTRL"},
      {"measurement": "Volume", "setting": "DLD1 tumors; [12]", "result": "619 347 123 mm^3"},
      {"measurement": "% CTRL (tumor volume)", "setting": "DLD1 tumors; [13]", "result": "105 64 28 % CTRL"},
      {"measurement": "Volume", "setting": "DLD1 tumors; [13]", "result": "587 354 159 mm^3"}
    ]}
  ]
}
